Tested on: PLA2
Experiment: X-ray co-crystal structure of the complex with PLA2 (PDB 3JQ5)
Type: binding, Naja naja sagittifera
Conditions: 2.0 Å resolution, peptide at 10-fold high molar concentration, 10 mM sodium phosphate pH 6.0, 1 mM CaCl2, 3 h incubation
Description: The lyophilized samples of crude cobra venom of Naja naja sagittifera were obtained from Irula Snake Catchers Industrial Cooperative Society, Chennai, India. The crude venom was dissolved in 50 mM Tris-HCl, 100 mM NaCl, pH 7.0 at 100 mg/mL concentration and centrifuged at 12,000× g for 10 min to remove insoluble material. The collected supernatant was size fractionated on Sephadex G-100 column (100 × 2 cm) pre-equilibrated with 50 mM Tris-HCl, 100 mM NaCl, pH 7.0. The column was eluted with the same buffer at a flow rate of 6 mL/h. The peak corresponding to molecular weight of 14 kDa on SDS-PAGE and showing PLA2 activity was pooled for further purification. The pooled fractions were desalted and dialysed against 50 mM Tris-HCl, pH 7.0 and loaded on CM Sephadex C-50 column (Pharmacia, Uppsala, Sweden). The column was washed with the above buffer. The unbound fractions were pooled and dialysed against ammonium acetate buffer, pH 6.0. […] The N-terminal sequence of the first 15 residues was determined. […]
The crystal structure was determined with molecular replacement method using auto-AMoRe from the CCP4 software suit (Collaborative Computational Project, Number 4, 1994). […] The rotation and translation functions calculated with data in the resolution range, 12.0–3.5 Å yielded a unique solution with the first peak being very distinct. […]

Substance: Asp-Ala-Glu-Phe-Arg-His-Asp-Ser [DAEFRHDS]
- binding in the substrate binding site / hydrophobic channel of PLA2: strongly interacted with the non-polar binding-cavity residues of PLA2
- binding in the substrate binding site / hydrophobic channel of PLA2 (listed as octa-peptide): fitted well in the substrate binding site of enzyme

— PMC3975393, “Structure of N-Terminal Sequence Asp-Ala-Glu-Phe-Arg-His-Asp-Ser of Aβ-Peptide with Phospholipase A2 from Venom of Andaman Cobra Sub-Species Naja naja sagittifera at 2.0 Å Resolution” (International Journal of Molecular Sciences, 2014)
